Experimental data reported in ChEMBL document CHEMBL4177534, “Discovery and evaluation of 1H-pyrrolo[2,3-b]pyridine based selective and reversible small molecule BTK inhibitors for the treatment of rheumatoid arthritis” (Bioorg Med Chem Lett, 2017).

Experiments:
[1] = Metabolic stability in human liver microsomes assessed as metabolism rate; format: ADME, microsome
[2] = target: Tyrosine-protein kinase BTK (Mus musculus, UniProt P35991); assay: Inhibition of mouse BTK assessed as decrease in anti-mouse IgD antibody stimulated BCR mediated CD69 upregulation in whole blood preincubated for 1 hr followed by antibody challenge after 4 hrs by flow cytometry
[3] = Volume of distribution at steady state in mouse at 3 mg/kg, iv; format: ADME, organism-based; conditions: in vivo, read-out: Vdss
[4] = Cmax in mouse at 10 mg/kg, po; format: ADME, organism-based; design: dose 10 mg/kg, route oral; conditions: in vivo
[5] = Oral bioavailability in mouse at 10 mg/kg; format: ADME, organism-based; conditions: in vivo
Mus musculus = assay: Antiarthritic activity in DBA/1J mouse type-2 collagen-induced arthritis model assessed as reduction in clinical score immunized with type-2 collagen on day 1 and day 21 followed by LPS challenge on day 28 subsequent compound administration po bid by hematoxylin and eosin staining based assay; format: functional, organism-based
[6] = target: Interleukin-1 receptor-associated kinase 4 (Homo sapiens) (UniProt Q9NWZ3); assay: Inhibition of recombinant human full length N-terminal GST-tagged IRAK4 expressed in baculovirus infected Sf9 cells assessed as change in enzyme activity at 1 uM in presence of 2 uM ATP relative to control; design: scale not given: the % may be the effect or the level left
[7] = target: Cyclin-dependent kinase 1/Cyclin A1 (Homo sapiens) (UniProt P06493+P78396); assay: Inhibition of recombinant human full length N-terminal GST-tagged CDK1/CyclinA1 expressed in baculovirus infected Sf9 cells assessed as change in enzyme activity at 1 uM in presence of 1 uM ATP relative to control; design: scale not given: the % may be the effect or the level left
[8] = target: Serine/threonine-protein kinase B-raf (Homo sapiens) (UniProt P15056); assay: Inhibition of recombinant human full length N-terminal GST-tagged BRAF expressed in baculovirus infected Sf9 cells assessed as change in enzyme activity at 1 uM in presence of 1 uM ATP relative to control; design: scale not given: the % may be the effect or the level left
[9] = target: Tyrosine-protein kinase Lck (Homo sapiens) (UniProt P06239); assay: Inhibition of recombinant human full length N-terminal GST-tagged LCK expressed in baculovirus infected Sf9 cells assessed as change in enzyme activity at 1 uM in presence of 1 uM ATP relative to control; design: scale not given: the % may be the effect or the level left
[10] = target: Calcium/calmodulin-dependent protein kinase type IV (Homo sapiens) (UniProt Q16566); assay: Inhibition of recombinant human full length N-terminal GST-tagged CAMK4 expressed in baculovirus infected Sf9 cells assessed as change in enzyme activity at 1 uM in presence of 2 uM ATP relative to control; design: scale not given: the % may be the effect or the level left
[11] = target: Tyrosine-protein kinase ZAP-70 (Homo sapiens) (UniProt P43403); assay: Inhibition of recombinant human full length N-terminal GST-tagged ZAP70 expressed in baculovirus infected Sf9 cells assessed as change in enzyme activity at 1 uM in presence of 2 uM ATP relative to control; design: scale not given: the % may be the effect or the level left
[12] = target: RAC-alpha serine/threonine-protein kinase (Homo sapiens) (UniProt P31749); assay: Inhibition of recombinant human full length N-terminal GST-tagged AKT1 expressed in baculovirus infected Sf9 cells assessed as change in enzyme activity at 1 uM in presence of 2 uM ATP relative to control; design: scale not given: the % may be the effect or the level left
[13] = target: Mitogen-activated protein kinase kinase kinase 1 (Homo sapiens) (UniProt Q13233); assay: Inhibition of recombinant human N-terminal GST-tagged MEKK1 ([…] residues) expressed in baculovirus infected Sf9 cells assessed as change in enzyme activity at 1 uM in presence of 2 uM ATP relative to control; design: scale not given: the % may be the effect or the level left
[14] = target: Dual specificity mitogen-activated protein kinase kinase 1 (Homo sapiens) (UniProt Q02750); assay: Inhibition of recombinant full length N-terminal GST-tagged MEK1 (unknown origin) assessed as change in enzyme activity at 1 uM in presence of 1 uM ATP relative to control; design: scale not given: the % may be the effect or the level left
[15] = target: Mitogen-activated protein kinase 3 (Homo sapiens) (UniProt P27361); assay: Inhibition of recombinant human full length ERK1 assessed as change in enzyme activity at 1 uM in presence of 1 uM ATP relative to control; design: scale not given: the % may be the effect or the level left
[16] = target: Glycogen synthase kinase-3 beta (Homo sapiens) (UniProt P49841); assay: Inhibition of recombinant human full length N-terminal GST/His tagged GSK3beta expressed in baculovirus infected Sf9 cells assessed as change in enzyme activity at 1 uM in presence of 1 uM ATP relative to control; design: scale not given: the % may be the effect or the level left
[17] = target: Tyrosine-protein kinase Lyn (Homo sapiens) (UniProt P07948); assay: Inhibition of recombinant human full length N-terminal GST-tagged LYN A expressed in baculovirus infected Sf9 cells assessed as change in enzyme activity at 1 uM in presence of 1 uM ATP relative to control; design: scale not given: the % may be the effect or the level left
[18] = target: Hepatocyte growth factor receptor (Homo sapiens) (UniProt P08581); assay: Inhibition of recombinant human N-terminal GST-tagged MET (956 to end residues) expressed in baculovirus infected Sf9 cells assessed as change in enzyme activity at 1 uM in presence of 1 uM ATP relative to control; design: scale not given: the % may be the effect or the level left
[19] = target: Serine/threonine-protein kinase pim-2 (Homo sapiens) (UniProt Q9P1W9); assay: Inhibition of recombinant human full length N-terminal GST-tagged PIM2 expressed in baculovirus infected Sf9 cells assessed as change in enzyme activity at 1 uM in presence of 1 uM ATP relative to control; design: scale not given: the % may be the effect or the level left
[20] = target: Serine/threonine-protein kinase Nek11 (Homo sapiens) (UniProt Q8NG66); assay: Inhibition of recombinant human full length N-terminal GST-tagged NEK11 expressed in baculovirus infected Sf9 cells assessed as change in enzyme activity at 1 uM in presence of 2 uM ATP relative to control; design: scale not given: the % may be the effect or the level left
[21] = target: Mast/stem cell growth factor receptor Kit (Homo sapiens) (UniProt P10721); assay: Inhibition of recombinant human N-terminal GST-tagged c-KIT (544 to end residues) expressed in baculovirus infected Sf9 cells assessed as change in enzyme activity at 1 uM in presence of 2 uM ATP relative to control; design: scale not given: the % may be the effect or the level left
[22] = target: Ephrin type-A receptor 3 (Homo sapiens) (UniProt P29320); assay: Inhibition of recombinant human N-terminal GST-tagged EPHA3 (571 to end residues) expressed in baculovirus infected Sf9 cells assessed as change in enzyme activity at 1 uM in presence of 2 uM ATP relative to control; design: scale not given: the % may be the effect or the level left
[23] = target: Aurora kinase A (Homo sapiens) (UniProt O14965); assay: Inhibition of recombinant full length N-terminal GST-tagged AURORA A (unknown origin) expressed in baculovirus infected Sf9 cells assessed as change in enzyme activity at 1 uM in presence of 2 uM ATP relative to control; design: scale not given: the % may be the effect or the level left
[24] = target: Tyrosine-protein kinase TXK (Homo sapiens) (UniProt P42681); assay: Inhibition of recombinant N-terminal GST-tagged TXK (unknown origin) expressed in baculovirus infected Sf9 cells assessed as change in enzyme activity at 1 uM in presence of 2 uM ATP relative to control; design: scale not given: the % may be the effect or the level left
[25] = target: PAK 1/CDC42 (Homo sapiens) (UniProt Q13153+P60953); assay: Inhibition of recombinant human full length N-terminal GST-tagged PAK1/CDC42 expressed in baculovirus infected Sf9 cells assessed as change in enzyme activity at 1 uM in presence of 2 uM ATP relative to control; design: scale not given: the % may be the effect or the level left

Sequence of Tyrosine-protein kinase TXK (Homo sapiens) (P42681 whole entry): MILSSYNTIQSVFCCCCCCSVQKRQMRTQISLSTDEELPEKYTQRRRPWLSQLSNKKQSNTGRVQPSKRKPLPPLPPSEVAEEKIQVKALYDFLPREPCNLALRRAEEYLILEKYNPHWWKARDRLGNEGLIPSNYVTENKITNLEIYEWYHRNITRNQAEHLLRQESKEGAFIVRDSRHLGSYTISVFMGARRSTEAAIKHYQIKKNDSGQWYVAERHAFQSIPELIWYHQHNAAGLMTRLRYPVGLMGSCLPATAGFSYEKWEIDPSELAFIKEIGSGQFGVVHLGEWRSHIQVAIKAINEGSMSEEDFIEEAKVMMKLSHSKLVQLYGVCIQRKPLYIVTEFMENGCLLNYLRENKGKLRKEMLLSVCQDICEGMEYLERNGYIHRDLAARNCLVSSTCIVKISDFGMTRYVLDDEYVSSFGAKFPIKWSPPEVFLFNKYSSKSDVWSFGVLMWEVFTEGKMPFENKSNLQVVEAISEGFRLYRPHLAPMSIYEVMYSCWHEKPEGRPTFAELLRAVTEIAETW
Sequence of Mast/stem cell growth factor receptor Kit (Homo sapiens) (P10721 whole entry): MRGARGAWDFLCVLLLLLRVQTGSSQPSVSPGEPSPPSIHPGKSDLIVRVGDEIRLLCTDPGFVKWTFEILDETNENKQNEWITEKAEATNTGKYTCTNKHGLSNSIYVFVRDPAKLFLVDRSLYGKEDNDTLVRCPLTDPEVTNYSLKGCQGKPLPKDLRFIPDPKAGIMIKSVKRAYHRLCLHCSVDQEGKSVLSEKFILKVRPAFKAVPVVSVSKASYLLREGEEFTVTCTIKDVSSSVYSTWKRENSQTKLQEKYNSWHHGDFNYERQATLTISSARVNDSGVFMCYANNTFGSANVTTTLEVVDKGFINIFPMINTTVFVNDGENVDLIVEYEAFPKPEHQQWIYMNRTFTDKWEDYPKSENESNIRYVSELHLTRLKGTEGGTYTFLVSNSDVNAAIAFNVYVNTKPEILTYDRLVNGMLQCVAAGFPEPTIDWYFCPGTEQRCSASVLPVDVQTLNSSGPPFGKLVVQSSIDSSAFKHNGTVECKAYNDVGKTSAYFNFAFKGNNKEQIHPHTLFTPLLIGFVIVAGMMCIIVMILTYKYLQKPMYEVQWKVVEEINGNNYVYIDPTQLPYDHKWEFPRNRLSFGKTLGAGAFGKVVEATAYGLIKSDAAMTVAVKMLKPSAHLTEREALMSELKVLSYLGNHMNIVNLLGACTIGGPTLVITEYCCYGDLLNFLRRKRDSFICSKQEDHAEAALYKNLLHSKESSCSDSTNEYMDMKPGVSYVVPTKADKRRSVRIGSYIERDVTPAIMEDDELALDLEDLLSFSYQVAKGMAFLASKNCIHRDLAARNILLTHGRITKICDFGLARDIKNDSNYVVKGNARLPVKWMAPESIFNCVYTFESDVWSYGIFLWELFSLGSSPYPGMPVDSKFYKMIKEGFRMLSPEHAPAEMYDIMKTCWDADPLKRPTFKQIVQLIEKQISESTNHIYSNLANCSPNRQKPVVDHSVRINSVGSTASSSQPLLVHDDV
Sequence of Aurora kinase A (Homo sapiens) (O14965 whole entry): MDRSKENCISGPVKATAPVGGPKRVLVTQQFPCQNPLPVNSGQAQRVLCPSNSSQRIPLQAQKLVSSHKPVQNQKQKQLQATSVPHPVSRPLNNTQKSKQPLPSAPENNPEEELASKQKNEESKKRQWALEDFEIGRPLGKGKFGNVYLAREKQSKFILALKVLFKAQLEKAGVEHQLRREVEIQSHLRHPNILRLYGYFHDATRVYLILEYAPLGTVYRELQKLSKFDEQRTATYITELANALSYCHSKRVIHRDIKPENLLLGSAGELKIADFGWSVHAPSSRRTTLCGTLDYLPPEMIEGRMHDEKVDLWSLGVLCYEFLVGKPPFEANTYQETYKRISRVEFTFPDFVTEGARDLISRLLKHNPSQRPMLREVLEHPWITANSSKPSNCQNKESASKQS
Sequence of Serine/threonine-protein kinase pim-2 (Homo sapiens) (Q9P1W9 whole entry, looked up): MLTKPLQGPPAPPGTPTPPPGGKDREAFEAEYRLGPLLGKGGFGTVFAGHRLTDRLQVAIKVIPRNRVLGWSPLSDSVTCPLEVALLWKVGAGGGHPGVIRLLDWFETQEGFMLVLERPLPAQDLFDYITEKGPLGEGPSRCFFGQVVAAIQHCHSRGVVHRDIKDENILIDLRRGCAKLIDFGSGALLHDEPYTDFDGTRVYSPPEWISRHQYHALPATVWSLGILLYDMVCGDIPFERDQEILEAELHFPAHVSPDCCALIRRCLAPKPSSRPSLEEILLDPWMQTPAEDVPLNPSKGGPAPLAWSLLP
Sequence of Hepatocyte growth factor receptor (Homo sapiens) (P08581 whole entry): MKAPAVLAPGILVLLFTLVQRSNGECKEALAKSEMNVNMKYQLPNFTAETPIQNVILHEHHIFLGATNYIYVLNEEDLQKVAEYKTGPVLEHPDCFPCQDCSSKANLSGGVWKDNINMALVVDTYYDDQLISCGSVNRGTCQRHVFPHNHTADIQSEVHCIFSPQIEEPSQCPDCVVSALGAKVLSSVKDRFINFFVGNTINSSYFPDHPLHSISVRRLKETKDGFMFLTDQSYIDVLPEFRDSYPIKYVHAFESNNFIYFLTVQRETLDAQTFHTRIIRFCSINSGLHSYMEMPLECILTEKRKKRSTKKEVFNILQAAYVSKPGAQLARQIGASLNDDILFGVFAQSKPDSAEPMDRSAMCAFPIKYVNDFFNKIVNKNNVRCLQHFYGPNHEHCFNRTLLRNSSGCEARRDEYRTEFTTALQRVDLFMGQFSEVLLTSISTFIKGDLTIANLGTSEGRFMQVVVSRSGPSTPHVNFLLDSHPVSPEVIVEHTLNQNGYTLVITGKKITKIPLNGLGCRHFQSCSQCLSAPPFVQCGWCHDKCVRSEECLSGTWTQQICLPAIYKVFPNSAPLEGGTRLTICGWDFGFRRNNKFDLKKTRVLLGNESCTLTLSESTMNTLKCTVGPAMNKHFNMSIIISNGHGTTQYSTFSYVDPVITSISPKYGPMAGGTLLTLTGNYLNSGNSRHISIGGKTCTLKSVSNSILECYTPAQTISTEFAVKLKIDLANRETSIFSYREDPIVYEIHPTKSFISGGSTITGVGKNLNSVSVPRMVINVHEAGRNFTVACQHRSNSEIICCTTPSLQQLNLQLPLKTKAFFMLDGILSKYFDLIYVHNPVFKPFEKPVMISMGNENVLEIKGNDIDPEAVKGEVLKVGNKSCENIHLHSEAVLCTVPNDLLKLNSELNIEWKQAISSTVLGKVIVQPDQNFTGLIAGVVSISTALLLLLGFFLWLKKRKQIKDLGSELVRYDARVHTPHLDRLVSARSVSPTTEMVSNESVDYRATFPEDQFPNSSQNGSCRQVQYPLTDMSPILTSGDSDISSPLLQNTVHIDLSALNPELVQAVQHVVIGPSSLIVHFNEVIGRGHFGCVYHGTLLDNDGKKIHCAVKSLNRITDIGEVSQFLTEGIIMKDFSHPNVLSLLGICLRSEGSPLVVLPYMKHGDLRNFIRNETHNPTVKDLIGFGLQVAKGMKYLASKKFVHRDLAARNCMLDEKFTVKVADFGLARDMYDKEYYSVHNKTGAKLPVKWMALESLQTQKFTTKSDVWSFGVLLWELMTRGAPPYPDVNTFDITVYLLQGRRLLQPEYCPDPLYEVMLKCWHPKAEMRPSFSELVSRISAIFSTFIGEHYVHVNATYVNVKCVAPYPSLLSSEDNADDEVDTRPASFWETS
Sequence of RAC-alpha serine/threonine-protein kinase (Homo sapiens) (P31749 whole entry): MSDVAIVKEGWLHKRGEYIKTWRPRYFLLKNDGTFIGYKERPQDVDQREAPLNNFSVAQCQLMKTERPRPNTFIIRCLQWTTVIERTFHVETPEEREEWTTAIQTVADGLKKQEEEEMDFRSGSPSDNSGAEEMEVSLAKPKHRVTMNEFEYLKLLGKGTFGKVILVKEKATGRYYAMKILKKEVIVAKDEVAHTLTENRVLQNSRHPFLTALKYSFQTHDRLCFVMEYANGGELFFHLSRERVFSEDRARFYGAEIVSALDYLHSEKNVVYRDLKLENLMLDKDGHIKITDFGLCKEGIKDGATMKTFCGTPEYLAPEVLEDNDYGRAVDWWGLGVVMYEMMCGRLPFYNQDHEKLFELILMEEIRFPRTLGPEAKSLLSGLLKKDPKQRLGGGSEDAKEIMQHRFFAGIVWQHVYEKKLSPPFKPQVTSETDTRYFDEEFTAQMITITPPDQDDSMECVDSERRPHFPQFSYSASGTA
Sequence of Calcium/calmodulin-dependent protein kinase type IV (Homo sapiens) (Q16566 whole entry): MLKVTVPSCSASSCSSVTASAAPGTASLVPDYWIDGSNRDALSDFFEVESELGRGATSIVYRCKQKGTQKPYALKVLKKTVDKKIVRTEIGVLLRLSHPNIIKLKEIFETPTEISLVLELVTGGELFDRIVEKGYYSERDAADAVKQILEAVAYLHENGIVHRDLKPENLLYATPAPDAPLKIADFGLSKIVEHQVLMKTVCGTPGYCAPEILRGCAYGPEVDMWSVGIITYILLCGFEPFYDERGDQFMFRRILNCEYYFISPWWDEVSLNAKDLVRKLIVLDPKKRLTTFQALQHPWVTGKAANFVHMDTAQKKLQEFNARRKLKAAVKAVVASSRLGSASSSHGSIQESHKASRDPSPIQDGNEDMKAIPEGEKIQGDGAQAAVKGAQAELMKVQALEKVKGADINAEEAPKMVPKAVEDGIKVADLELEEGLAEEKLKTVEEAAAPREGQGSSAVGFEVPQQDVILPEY
Sequence of Dual specificity mitogen-activated protein kinase kinase 1 (Homo sapiens) (Q02750 whole entry): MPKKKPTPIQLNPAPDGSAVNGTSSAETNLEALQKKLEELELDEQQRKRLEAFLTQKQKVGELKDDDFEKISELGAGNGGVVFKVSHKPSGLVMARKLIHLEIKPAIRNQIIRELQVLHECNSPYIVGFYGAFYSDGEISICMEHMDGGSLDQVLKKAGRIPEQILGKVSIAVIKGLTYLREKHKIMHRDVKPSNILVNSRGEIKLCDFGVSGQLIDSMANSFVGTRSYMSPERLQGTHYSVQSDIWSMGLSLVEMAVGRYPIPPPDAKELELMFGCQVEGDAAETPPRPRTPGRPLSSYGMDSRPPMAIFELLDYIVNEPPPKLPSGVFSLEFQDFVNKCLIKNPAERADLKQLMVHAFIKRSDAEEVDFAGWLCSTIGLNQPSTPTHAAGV

## CCN1CCN(Cc2ccc(-c3cc4c(-c5cccc(N6CCOc7cc(C8CC8)cc(F)c7C6=O)c5CO)ccnc4[nH]3)nc2)CC1
[1]
  Drug metabolism: < 0.04 nmol/min/mg
[2]
  IC50: 159 nM
[3]
  Vd: 1.9 L/kg
[4]
  Cmax: 2.3 µM
[5]
  bioavailability: 51%
Mus musculus
  Activity: Dose-dependent effect
[6]
  Activity: -3%
[7]
  Activity: 1%
[8]
  Activity: 1%
[9]
  Activity: -4%
[10]
  Activity: -5%
[11]
  Activity: 1%
[12]
  Activity: -15%
[13]
  Activity: 2%
[14]
  Activity: -14%
[15]
  Activity: 2%
[16]
  Activity: 2%
[17]
  Activity: -12%
[18]
  Activity: -6%
[19]
  Activity: 0%
[20]
  Activity: -5%
[21]
  Activity: -1%
[22]
  Activity: -2%
[23]
  Activity: -2%
[24]
  Activity: -2%
[25]
  Activity: 0%

## O=C1c2c(F)cc(C3CC3)cc2OCCN1c1cccc(-c2ccnc3[nH]c(C4=CCN(C5COC5)CC4)cc23)c1CO
[1]
  Drug metabolism: < 0.04 nmol/min/mg
[2]
  IC50: 364 nM
[3]
  Vd: 0.6 L/kg
[4]
  Cmax: 7.6 µM
[5]
  bioavailability: 49%
Mus musculus
  Activity: Dose-dependent effect
[6]
  Activity: 2%
[7]
  Activity: -3%
[8]
  Activity: -6%
[9]
  Activity: 1%
[10]
  Activity: 1%
[11]
  Activity: -1%
[12]
  Activity: -3%
[13]
  Activity: 3%
[14]
  Activity: -20%
[15]
  Activity: 1%
[16]
  Activity: -2%
[17]
  Activity: -2%
[18]
  Activity: 5%
[19]
  Activity: 1%
[20]
  Activity: -6%
[21]
  Activity: 0%
[22]
  Activity: -3%
[23]
  Activity: -10%
[24]
  Activity: 1%
[25]
  Activity: 2%
